Measured values as given in US6358885B1, “Substituted phenylheterocyclic herbicides” (Mississippi State University, priority 1992, dated 2002).

How the values were obtained:
Assay in all cases: Test B preemergence/postemergence greenhouse plant response rating 0 to 10
wild oat = assay type: in vivo, Avena fatua; conditions: for Plant response rating, Wild oat: 0 to 10 scale
Description: (§1) Seeds of barley (Hordeum vulgare), barnyardgrass (Echinochloa crus-galli), bedstraw (Galium aparine), blackgrass (Alopecurus myosuroides), […] (Bromus secalinus), chickweed (Stellaria media), cocklebur (Xanthium pensylvanicum), corn (Zea mays), cotton (Gossypium hirsutum), crabgrass (Digitaria spp.), giant foxtail (Setaria faberii), lambsquarters (Chenopodium album), morningglory (Ipomoea hederacea), rape (Brassica napus), rice (Oryza sativa), sorghum (Sorghum bicolor), soybean (Glycine max), sugar beet (Beta vulgaris), velvetleaf (Abutilon theophrasti), wheat (Triticum aestivum), wild buckwheat (Polygonum convolvulus), and wild oat (Avena fatua) and purple nutsedge. (Cyperus rotundus) tubers were planted and treated preemergence with test chemicals dissolved in a non-phytotoxic solvent. At the same time, these crop and weed species were also treated with postemergence applications of test chemicals. Plants ranged in height from two to eighteen cm (one to four leaf stage) for postemergence treatments. Treated plants and controls were maintained in a greenhouse for twelve to sixteen days, after which all species were compared to controls and visually evaluated. […] A dash (-) response means no test result.

cocklebur = assay type: in vivo, Xanthium pensylvanicum; conditions: for Plant response rating, Cocklebur: 0 to 10 scale
Description: as §1

lambsquarters = assay type: in vivo, Chenopodium album; conditions: for Plant response rating, Lambsquarter: 0 to 10 scale
Description: as §1

wheat = assay type: in vivo, Triticum aestivum; conditions: for Plant response rating, Wheat: 0 to 10 scale
Description: as §1

crabgrass = assay type: in vivo, Digitaria spp.; conditions: for Plant response rating, Crabgrass: 0 to 10 scale
Description: as §1

soybean = assay type: in vivo, Glycine max; conditions: for Plant response rating, Soybean: 0 to 10 scale
Description: as §1

purple nutsedge = assay type: in vivo, Cyperus rotundus; conditions: for Plant response rating, Nutsedge: 0 to 10 scale
Description: as §1

morningglory = assay type: in vivo, Ipomoea hederacea; conditions: for Plant response rating, Morningglory: 0 to 10 scale
Description: as §1

barnyardgrass = assay type: in vivo, Echinochloa crus-galli; conditions: for Plant response rating, Barnyardgrass: 0 to 10 scale
Description: as §1

rice = assay type: in vivo, Oryza sativa; conditions: for Plant response rating, Rice: 0 to 10 scale
Description: as §1

sorghum = assay type: in vivo, Sorghum bicolor; conditions: for Plant response rating, Sorghum: 0 to 10 scale
Description: as §1

bedstraw = assay type: in vivo, Galium aparine; conditions: for Plant response rating, Bedstraw: 0 to 10 scale
Description: as §1

corn = assay type: in vivo, Zea mays; conditions: for Plant response rating, Corn: 0 to 10 scale
Description: as §1

cheatgrass = assay type: in vivo, Bromus secalinus; conditions: for Plant response rating, Cheatgrass: 0 to 10 scale
Description: as §1

chickweed = assay type: in vivo, Stellaria media; conditions: for Plant response rating, Chickweed: 0 to 10 scale
Description: as §1

sugar beet = assay type: in vivo, Beta vulgaris; conditions: for Plant response rating, Sugar beet: 0 to 10 scale
Description: as §1

blackgrass = assay type: in vivo, Alopecurus myosuroides; conditions: for Plant response rating, Blackgrass: 0 to 10 scale
Description: as §1

velvetleaf = assay type: in vivo, Abutilon theophrasti; conditions: for Plant response rating, Velvetleaf: 0 to 10 scale
Description: as §1

giant foxtail = assay type: in vivo, Setaria faberii; conditions: for Plant response rating, Giant foxtail: 0 to 10 scale
Description: as §1

cotton = assay type: in vivo, Gossypium hirsutum; conditions: for Plant response rating, Cotton: 0 to 10 scale
Description: as §1

barley = assay type: in vivo, Hordeum vulgare; conditions: for Plant response rating, Barley: 0 to 10 scale
Description: as §1

rape = assay type: in vivo, Brassica napus; conditions: for Plant response rating, Rape: 0 to 10 scale
Description: as §1

wild buckwheat = assay type: in vivo, Polygonum convolvulus; conditions: for Plant response rating, Wild buckwheat: 0 to 10 scale
Description: as §1

## COCOc1cc(-c2nn3c(c2Br)CCCC3)c(F)cc1Cl [Compound 65]
Wild oat; POSTEMERGENCE, Rate 50 g/ha
  Plant response rating, Wild oat: 7
Wild oat; PREEMERGENCE, Rate 50 g/ha
  Plant response rating, Wild oat: 2
Wild oat; PREEMERGENCE, Rate 200 g/ha
  Plant response rating (0 to 10 scale), Wild oat: 8
Wild oat; Rate 200 g/ha, POSTEMERGENCE
  Plant response rating, Wild oat: 7
cocklebur; POSTEMERGENCE, Rate 50 g/ha
  Plant response rating, Cocklebur: 10
cocklebur; PREEMERGENCE, Rate 50 g/ha
  Plant response rating, Cocklebur: 0
cocklebur; PREEMERGENCE, Rate 200 g/ha
  Plant response rating (0 to 10 scale), Cocklebur: 4
cocklebur; Rate 200 g/ha, POSTEMERGENCE
  Plant response rating, Cocklebur: 10
lambsquarters; POSTEMERGENCE, Rate 50 g/ha
  Plant response rating, Lambsquarter: 10
lambsquarters; PREEMERGENCE, Rate 50 g/ha
  Plant response rating, Lambsquarter: 10
lambsquarters; PREEMERGENCE, Rate 200 g/ha
  Plant response rating (0 to 10 scale), Lambsquarter: 10
lambsquarters; Rate 200 g/ha, POSTEMERGENCE
  Plant response rating, Lambsquarter: 10
wheat; POSTEMERGENCE, Rate 50 g/ha
  Plant response rating, Wheat: 6
wheat; PREEMERGENCE, Rate 50 g/ha
  Plant response rating, Wheat: 0
wheat; PREEMERGENCE, Rate 200 g/ha
  Plant response rating (0 to 10 scale), Wheat: 5
wheat; Rate 200 g/ha, POSTEMERGENCE
  Plant response rating, Wheat: 5
crabgrass; POSTEMERGENCE, Rate 50 g/ha
  Plant response rating, Crabgrass: 4
crabgrass; PREEMERGENCE, Rate 50 g/ha
  Plant response rating, Crabgrass: 2
crabgrass; PREEMERGENCE, Rate 200 g/ha
  Plant response rating (0 to 10 scale), Crabgrass: 2
crabgrass; Rate 200 g/ha, POSTEMERGENCE
  Plant response rating, Crabgrass: 7
soybean; PREEMERGENCE, Rate 50 g/ha
  Plant response rating, Soybean: 0
soybean; PREEMERGENCE, Rate 200 g/ha
  Plant response rating (0 to 10 scale), Soybean: 2
soybean; Rate 200 g/ha, POSTEMERGENCE
  Plant response rating, Soybean: 8
Purple nutsedge; POSTEMERGENCE, Rate 50 g/ha
  Plant response rating, Nutsedge: 3
Purple nutsedge; PREEMERGENCE, Rate 50 g/ha
  Plant response rating, Nutsedge: 0
Purple nutsedge; PREEMERGENCE, Rate 200 g/ha
  Plant response rating (0 to 10 scale), Nutsedge: 0
Purple nutsedge; Rate 200 g/ha, POSTEMERGENCE
  Plant response rating, Nutsedge: 4
morningglory; POSTEMERGENCE, Rate 50 g/ha
  Plant response rating, Morningglory: 10
morningglory; PREEMERGENCE, Rate 50 g/ha
  Plant response rating, Morningglory: 0
morningglory; PREEMERGENCE, Rate 200 g/ha
  Plant response rating (0 to 10 scale), Morningglory: 2
morningglory; Rate 200 g/ha, POSTEMERGENCE
  Plant response rating, Morningglory: 10
barnyardgrass; POSTEMERGENCE, Rate 50 g/ha
  Plant response rating, Barnyardgrass: 7
barnyardgrass; PREEMERGENCE, Rate 50 g/ha
  Plant response rating, Barnyardgrass: 4
barnyardgrass; PREEMERGENCE, Rate 200 g/ha
  Plant response rating (0 to 10 scale), Barnyardgrass: 9
barnyardgrass; Rate 200 g/ha, POSTEMERGENCE
  Plant response rating, Barnyardgrass: 9
rice; POSTEMERGENCE, Rate 50 g/ha
  Plant response rating, Rice: 5
rice; PREEMERGENCE, Rate 50 g/ha
  Plant response rating, Rice: 1
rice; PREEMERGENCE, Rate 200 g/ha
  Plant response rating (0 to 10 scale), Rice: 3
rice; Rate 200 g/ha, POSTEMERGENCE
  Plant response rating, Rice: 6
sorghum; POSTEMERGENCE, Rate 50 g/ha
  Plant response rating, Sorghum: 6
sorghum; PREEMERGENCE, Rate 50 g/ha
  Plant response rating, Sorghum: 0
sorghum; PREEMERGENCE, Rate 200 g/ha
  Plant response rating (0 to 10 scale), Sorghum: 0
sorghum; Rate 200 g/ha, POSTEMERGENCE
  Plant response rating, Sorghum: 7
bedstraw; POSTEMERGENCE, Rate 50 g/ha
  Plant response rating, Bedstraw: 10
bedstraw; PREEMERGENCE, Rate 50 g/ha
  Plant response rating, Bedstraw: 5
bedstraw; PREEMERGENCE, Rate 200 g/ha
  Plant response rating (0 to 10 scale), Bedstraw: 5
bedstraw; Rate 200 g/ha, POSTEMERGENCE
  Plant response rating, Bedstraw: 10
corn; POSTEMERGENCE, Rate 50 g/ha
  Plant response rating, Corn: 4
corn; PREEMERGENCE, Rate 50 g/ha
  Plant response rating, Corn: 0
corn; PREEMERGENCE, Rate 200 g/ha
  Plant response rating (0 to 10 scale), Corn: 4
corn; Rate 200 g/ha, POSTEMERGENCE
  Plant response rating, Corn: 5
cheatgrass; POSTEMERGENCE, Rate 50 g/ha
  Plant response rating, Cheatgrass: 3
cheatgrass; PREEMERGENCE, Rate 50 g/ha
  Plant response rating, Cheatgrass: 2
cheatgrass; PREEMERGENCE, Rate 200 g/ha
  Plant response rating (0 to 10 scale), Cheatgrass: 4
cheatgrass; Rate 200 g/ha, POSTEMERGENCE
  Plant response rating, Cheatgrass: 6
chickweed; POSTEMERGENCE, Rate 50 g/ha
  Plant response rating, Chickweed: 5
chickweed; PREEMERGENCE, Rate 50 g/ha
  Plant response rating, Chickweed: 1
chickweed; PREEMERGENCE, Rate 200 g/ha
  Plant response rating (0 to 10 scale), Chickweed: 3
chickweed; Rate 200 g/ha, POSTEMERGENCE
  Plant response rating, Chickweed: 9
Sugar beet; POSTEMERGENCE, Rate 50 g/ha
  Plant response rating, Sugar beet: 10
Sugar beet; PREEMERGENCE, Rate 50 g/ha
  Plant response rating, Sugar beet: 9
Sugar beet; PREEMERGENCE, Rate 200 g/ha
  Plant response rating (0 to 10 scale), Sugar beet: 10
Sugar beet; Rate 200 g/ha, POSTEMERGENCE
  Plant response rating, Sugar beet: 10
blackgrass; POSTEMERGENCE, Rate 50 g/ha
  Plant response rating, Blackgrass: 7
blackgrass; PREEMERGENCE, Rate 50 g/ha
  Plant response rating, Blackgrass: 7
blackgrass; PREEMERGENCE, Rate 200 g/ha
  Plant response rating (0 to 10 scale), Blackgrass: 7
blackgrass; Rate 200 g/ha, POSTEMERGENCE
  Plant response rating, Blackgrass: 7
velvetleaf; POSTEMERGENCE, Rate 50 g/ha
  Plant response rating, Velvetleaf: 10
velvetleaf; PREEMERGENCE, Rate 50 g/ha
  Plant response rating, Velvetleaf: 9
velvetleaf; PREEMERGENCE, Rate 200 g/ha
  Plant response rating (0 to 10 scale), Velvetleaf: 9
velvetleaf; Rate 200 g/ha, POSTEMERGENCE
  Plant response rating, Velvetleaf: 10
Giant foxtail; POSTEMERGENCE, Rate 50 g/ha
  Plant response rating, Giant foxtail: 5
Giant foxtail; PREEMERGENCE, Rate 50 g/ha
  Plant response rating, Giant foxtail: 6
Giant foxtail; PREEMERGENCE, Rate 200 g/ha
  Plant response rating (0 to 10 scale), Giant foxtail: 10
Giant foxtail; Rate 200 g/ha, POSTEMERGENCE
  Plant response rating, Giant foxtail: 8
cotton; POSTEMERGENCE, Rate 50 g/ha
  Plant response rating, Cotton: 10
cotton; PREEMERGENCE, Rate 50 g/ha
  Plant response rating, Cotton: 0
cotton; PREEMERGENCE, Rate 200 g/ha
  Plant response rating (0 to 10 scale), Cotton: 4
cotton; Rate 200 g/ha, POSTEMERGENCE
  Plant response rating, Cotton: 10
barley; POSTEMERGENCE, Rate 50 g/ha
  Plant response rating, Barley: 3
barley; PREEMERGENCE, Rate 50 g/ha
  Plant response rating, Barley: 0
barley; PREEMERGENCE, Rate 200 g/ha
  Plant response rating (0 to 10 scale), Barley: 2
barley; Rate 200 g/ha, POSTEMERGENCE
  Plant response rating, Barley: 6
rape; POSTEMERGENCE, Rate 50 g/ha
  Plant response rating, Rape: 8
rape; PREEMERGENCE, Rate 50 g/ha
  Plant response rating, Rape: 0
rape; PREEMERGENCE, Rate 200 g/ha
  Plant response rating (0 to 10 scale), Rape: 10
rape; Rate 200 g/ha, POSTEMERGENCE
  Plant response rating, Rape: 9
Wild buckwheat; POSTEMERGENCE, Rate 50 g/ha
  Plant response rating, Wild buckwheat: 10
Wild buckwheat; PREEMERGENCE, Rate 50 g/ha
  Plant response rating, Wild buckwheat: 10
Wild buckwheat; PREEMERGENCE, Rate 200 g/ha
  Plant response rating (0 to 10 scale), Wild buckwheat: 10
Wild buckwheat; Rate 200 g/ha, POSTEMERGENCE
  Plant response rating, Wild buckwheat: 10
